Paper PMC9221290, “Alkaloids of Dicranostigma franchetianum (Papaveraceae) and Berberine Derivatives as a New Class of Antimycobacterial Agents” (Biomolecules, 2022)
In brackets after ≈: the same amount, converted by molar mass. Read-outs that look alike come from different tables or passages of the source.

Tests used:
[1] = test system: Mycolicibacterium smegmatis DSM 43465 (ATCC 607); assay: Antimycobacterial microdilution broth assay (resazurin), M. smegmatis; type: cell-based; conditions: Mycolicibacterium smegmatis, 48 h
[2] = test system: methicillin-resistant Staphylococcus aureus; parameters: method as in PMID 21341176; conditions: read-out: IC50 against methicillin-resistant Staphylococcus aureus; cited from earlier work
[3] = test system: Mycobacterium kansasii DSM 44162 (ATCC 12478); assay: Antimycobacterial microdilution broth assay (resazurin), M. kansasii; type: cell-based; conditions: Mycobacterium kansasii, 96 h
[4] = test system: five Mycobacterium or Mycolicibacterium strains; assay: organism not typed; type: cell-based; conditions: read-out: MICs against all tested mycobacterial strains
[5] = test system: Aspergillus fumigatus; parameters: method as in PMID 21341176; conditions: read-out: IC50 against Aspergillus fumigatus; cited from earlier work
[6] = test system: Mtb H37Ra ITM-M006710 (ATCC 9431); assay: Antimycobacterial microdilution broth assay (resazurin), Mtb H37Ra; type: cell-based, Mycobacterium tuberculosis; conditions: Mycobacterium tuberculosis
[7] = test system: Mycobacterium avium DSM 44156 (ATCC 25291); assay: Antimycobacterial microdilution broth assay (resazurin), M. avium; type: cell-based; conditions: Mycobacterium avium, 96 h, read-out: MIC M. avium, microdilution broth, resazurin, 96 h
[8] = test system: Mycolicibacterium aurum DSM 43999 (ATCC 23366); assay: Antimycobacterial microdilution broth assay (resazurin), M. aurum; type: cell-based; conditions: Mycolicibacterium aurum, 72 h
[9] = test system: HepG2 cells
[10] = in vitro; conditions: human, % of cell viability compared to control; for viability at 0.1 µM: HepG2, 0.1 µM; for viability at 1 µM: HepG2, 1 µM; for viability at 5 µM: HepG2, 5 µM; for viability at 10 µM: HepG2, 10 µM; for viability at 20 µM: HepG2, 20 µM; for viability at 30 µM: HepG2, 30 µM; for viability at 40 µM: HepG2, 40 µM; for viability at 50 µM: HepG2, 50 µM; for viability at 25 µM: HepG2, 25 µM; for viability at 75 µM: HepG2, 75 µM; for viability at 100 µM: HepG2, 100 µM
[11] = test system: HepG2 cells; assay: cells; conditions: Homo sapiens, HepG2, 24 h
[12] = test system: pulmonary tuberculosis; parameters: method as in PMID 34745081; conditions: mice with pulmonary tuberculosis; cited from earlier work
[13] = test system: M. intracellulare; conditions: cited from earlier work
[14] = test system: Mycolicibacterium smegmatis; parameters: method as in PMID 9784149; conditions: cited from earlier work
[15] = read-out: MIC M. smegmatis, microdilution broth, resazurin, 48 h
[16] = read-out: MIC M. kansasii, microdilution broth, resazurin, 96 h
[17] = 120 h, microdilution broth, resazurin, 120 h, read-out: MIC Mtb H37Ra
[18] = calculated from MIC (µg/mL) and MW, read-out: MIC Mtb H37Ra
[19] = read-out: MIC M. aurum, microdilution broth, resazurin, 72 h
[20] = read-out: HepG2 IC50, MTT, 24 h incubation
[21] = read-out: HepG2 IC50, 1. measurement, MTT, 24 h, single measurement 1
[22] = read-out: HepG2 IC50, 2. measurement, MTT, 24 h, single measurement 2
[23] = read-out: HepG2 IC50, 3. measurement, MTT, 24 h, single measurement 3

| Compound | MIC [1, 15] [µg/mL] | MIC [3, 16] [µg/mL] | MIC [4] [µg/mL] | MIC [6, 17] [µg/mL] | MIC [6, 18] [µM] | MIC [7] [µg/mL] | MIC [8, 19] [µg/mL] | SI (selectivity index) [9] | viability at 1 µM ([10]; 1. measurement) [%] | viability at 5 µM ([10]; 1. measurement) [%] | viability at 10 µM ([10]; 1. measurement) [%] | viability at 50 µM ([10]; 1. measurement) [%] | viability at 0.1 µM ([10]; 2. measurement) [%] | viability at 1 µM ([10]; 2. measurement) [%] | viability at 5 µM ([10]; 2. measurement) [%] | viability at 10 µM ([10]; 2. measurement) [%] | viability at 50 µM ([10]; 2. measurement) [%] | viability at 0.1 µM ([10]; 3. measurement) [%] | viability at 1 µM ([10]; 3. measurement) [%] | viability at 5 µM ([10]; 3. measurement) [%] | also measured |
| --- | --- | --- | --- | --- | --- | --- | --- | --- | --- | --- | --- | --- | --- | --- | --- | --- | --- | --- | --- | --- | --- |
| COc1ccc2c(c1OC)C(OC1c3c(ccc(OC)c3OC)-c3ccc4cc5c(cc4c3N1C)OCO5)N(C)c1c-2ccc2cc3c(cc12)OCO3 (centres unmarked) [compound 5, bis-[6-(5,6-dihydrochelerythrinyl)]ether] | 31.2 (≈ 43.8 µM) | 31.2 (≈ 43.8 µM) | 15.6 to 31.2 (≈ 21.9 to 43.8 µM) | 31.2 | 44 | 31.2 (≈ 43.8 µM) | 31.2 (≈ 43.8 µM) |  |  |  |  |  |  |  |  |  |  |  |  |  | IC50 [2]: 1 µM; IC50 [5]: 0.9 µM |
| CCOC1c2c(ccc(OC)c2OC)-c2ccc3cc4c(cc3c2N1C)OCO4 (centres unmarked) [compound 3, 6-ethoxydihydrochelerythrine] | 31.2 (≈ 79.4 µM) | 31.2 (≈ 79.4 µM) | 15.6 to 31.2 (≈ 39.7 to 79.4 µM) | 31.2 | 79 | 31.2 (≈ 79.4 µM) | 15.6 (≈ 39.7 µM) |  |  |  |  |  |  |  |  |  |  |  |  |  |  |
| COc1ccc2cc3[n+](cc2c1OCc1ccccc1Br)CCc1cc2c(cc1-3)OCO2 [16e, 9-O-(2-brombenzyl)berberine chloride] | 0.39 | 3.12 | 0.39 to 3.12 | 1.56 | 2.96 | 1.56 | 0.78 | 3.92 | 96.3 | 66.9 | 48.6 | 10.5 | 95.5 | 93.8 | 66.2 | 53.6 | 2.08 | 92 | 98.5 | 68 | IC50 [9, 20]: 11.8 ± 0.29 µM; viability at 0.1 µM ([10]; 1. measurement): 102%; viability at 20 µM ([10]; 1. measurement): 40.7%; viability at 30 µM ([10]; 1. measurement): 34.3%; viability at 40 µM ([10]; 1. measurement): 24.6%; viability at 20 µM ([10]; 2. measurement): 46.1%; viability at 30 µM ([10]; 2. measurement): 36.5%; viability at 40 µM ([10]; 2. measurement): 16.2%; viability at 10 µM ([10]; 3. measurement): 53.7%; viability at 20 µM ([10]; 3. measurement): 45.1%; viability at 30 µM ([10]; 3. measurement): 34.5%; viability at 40 µM ([10]; 3. measurement): 14.8%; viability at 50 µM ([10]; 3. measurement): 2.75%; IC50 [11, 21]: 11.5 µM; IC50 [11, 22]: 11.8 µM; IC50 [11, 23]: 12 µM; IC50 [11, 20]: 11.6 ± 0.29 µM |
| COc1ccc2cc3[n+](cc2c1OCc1ccc(C)cc1)CCc1cc2c(cc1-3)OCO2 [16d, 9-O-(4-methylbenzyl)berberine chloride] | 1.56 | 3.91 |  |  |  | 1.98 | 6.25 | 2.54 | 96.1 | 70 | 55.6 | 43.7 | 93.3 | 92.6 | 64.6 | 48 | 41.4 | 79.8 | 76.5 | 68.2 | viability at 25 µM ([10]; 1. measurement): 48%; viability at 75 µM ([10]; 1. measurement): 32.6%; viability at 100 µM ([10]; 1. measurement): 7.68%; viability at 25 µM ([10]; 2. measurement): 45%; viability at 75 µM ([10]; 2. measurement): 34%; viability at 100 µM ([10]; 2. measurement): 15.7%; viability at 10 µM ([10]; 3. measurement): 52%; viability at 25 µM ([10]; 3. measurement): 47.6%; viability at 50 µM ([10]; 3. measurement): 45.2%; viability at 75 µM ([10]; 3. measurement): 18.3%; viability at 100 µM ([10]; 3. measurement): 11.4%; MIC ([6]; 120 h, read-out: MIC Mtb H37Ra, microdilution broth, resazurin, 120 h): 3.91 µg/mL; MIC ([6]; read-out: MIC Mtb H37Ra (µM), calculated from MIC (µg/mL) and MW): 8.46 µM; IC50 [11, 21]: 19.3 µM; IC50 [11, 22]: 16 µM; IC50 [11, 23]: 12.3 µM; IC50 [11, 20]: 15.9 ± 3.48 µM |
| COc1ccc2cc3[n+](cc2c1OC)CCc1cc2c(cc1-3)OCO2 [compound 16, berberine] |  |  |  | 125 | 336 | 31.2 |  |  |  |  |  |  |  |  |  |  |  |  |  |  | effects on bacterial burden [12]: no additive or synergistic effects; lung pathology [12]: decreased lung pathology; MIC against M. intracellulare [13]: 1.56 µg/mL; MIC against M. intracellulare ([13]; ref Gentry et al. 1998): 200 µg/mL; MIC ([1]; microdilution broth, resazurin, read-out: MIC M. smegmatis): 62.5 µg/mL; MIC ([3]; read-out: MIC M. kansasii): 31.2 µg/mL; MIC ([8]; read-out: MIC M. aurum): 62.5 µg/mL; MIC against Mycolicibacterium smegmatis [14]: 25 µg/mL |
